Measured values as given in publication PMC12624955, “Exploring diarylheptanoid derivatives to target LIMK1 as potential agents against colorectal cancer” (Journal of Enzyme Inhibition and Medicinal Chemistry, 2025).

Assays:
Experiment in all cases: SelectScreen kinase panel, Z′-LYTE kinase assay
Format in all cases: biochemical
Conditions in all cases: read-out: Inhibition percentage at 1 μM
AKT1 (PKB alpha) = biological target: T1, AKT1 (PKB alpha) (Homo sapiens, UniProt P31749)
T1 construct: purchased Thermo Fisher Scientific SelectScreen
Method: (§1) Kinase panel screening was carried out using the SelectScreen Kinase Assay (Thermo Fisher Scientific, Waltham, MA, USA). Three complementary assay formats were applied: the Z′-LYTE kinase assay, LanthaScreen Eu kinase binding assay, and Adapta Universal kinase assay. The kinases selected for this study and the corresponding assay formats are summarised in Supplementary Table S1.
(§2) The Z′-LYTE Kinase Assay (Thermo Fisher Scientific, Waltham, MA, USA) was used to evaluate selected kinases’ activity, according to the manufacturer’s instructions (https://www.thermofisher.com/tw/zt/home/industrial/pharma-biopharma/drug-discovery-development/target-and-lead-identification-and-validation/kinasebiology/kinase-activity-assays/z-lyte/z-lyte-reactivity-table.html). This endpoint assay quantifies kinase activity by detecting peptide substrate phosphorylation. Briefly, a 2× mixture of selected kinase and relevant substrate was prepared in kinase buffer (0.01% polyoxyethylene lauryl ether (BRIJ-35), 50 mM 4-(2-hydroxyethyl)-1-piperazineethanesulfonic acid (HEPES), pH 7.5, 1 mM ethylene glycol-bis(β-aminoethyl ether)-N,N,N′,N′-tetraacetic acid (EGTA), and 10 mM MgCl2). After 1 h incubation at room temperature, 5 μl of 1:128 diluted development reagent solution was added, followed by an additional 1 h incubation. Fluorescence was recorded using a multimode plate reader.

AURKA (Aurora A) = biological target: T2, AURKA (Aurora A) (Homo sapiens, UniProt O14965)
T2 construct: purchased Thermo Fisher Scientific SelectScreen
Method: as §1, §2

BTK = biological target: T3, BTK (Homo sapiens, UniProt Q06187)
T3 construct: purchased Thermo Fisher Scientific SelectScreen
Method: as §1, §2

CAMK2B (CaMKII beta) = biological target: T4, CAMK2B (CaMKII beta) (Homo sapiens, UniProt Q13554)
T4 construct: purchased Thermo Fisher Scientific SelectScreen
Method: as §1, §2

CDK2/cyclin A = biological target: T5, CDK2/cyclin A (Homo sapiens, UniProt P24941)
T5 construct: purchased Thermo Fisher Scientific SelectScreen
Method: as §1, §2

CSNK1D (CK1 delta) = biological target: T6, CSNK1D (CK1 delta) (Homo sapiens, UniProt P48730)
T6 construct: purchased Thermo Fisher Scientific SelectScreen
Method: as §1, §2

CSNK1G1 (CK1 gamma 1) = biological target: T7, CSNK1G1 (CK1 gamma 1) (Homo sapiens, UniProt Q9HCP0)
T7 construct: purchased Thermo Fisher Scientific SelectScreen
Method: as §1, §2

DCAMKL1 (DCLK1) = biological target: T8, DCAMKL1 (DCLK1) (Homo sapiens, UniProt O15075)
T8 construct: purchased Thermo Fisher Scientific SelectScreen
Method: as §1, §2

DYRK1B = biological target: T9, DYRK1B (Homo sapiens, UniProt Q9Y463)
T9 construct: purchased Thermo Fisher Scientific SelectScreen
Method: as §1, §2

ERBB4 (HER4) = biological target: T10, ERBB4 (HER4) (Homo sapiens, UniProt Q15303)
T10 construct: purchased Thermo Fisher Scientific SelectScreen
Method: as §1, §2

FGFR1 = biological target: T11, FGFR1 (Homo sapiens, UniProt P11362)
T11 construct: purchased Thermo Fisher Scientific SelectScreen
Method: as §1, §2

HIPK1 (Myak) = biological target: T12, HIPK1 (Myak) (Homo sapiens, UniProt Q86Z02)
T12 construct: purchased Thermo Fisher Scientific SelectScreen
Method: as §1, §2

IKBKB (IKK beta) = biological target: T13, IKBKB (IKK beta) (Homo sapiens, UniProt O14920)
T13 construct: purchased Thermo Fisher Scientific SelectScreen
Method: as §1, §2

IRAK4 = biological target: T14, IRAK4 (Homo sapiens, UniProt Q9NWZ3)
T14 construct: purchased Thermo Fisher Scientific SelectScreen
Method: as §1, §2

LCK = biological target: T15, LCK (Homo sapiens, UniProt P06239)
T15 construct: purchased Thermo Fisher Scientific SelectScreen
Method: as §1, §2

MAP3K9 (MLK1) = biological target: T16, MAP3K9 (MLK1) (Homo sapiens, UniProt P80192)
T16 construct: purchased Thermo Fisher Scientific SelectScreen
Method: as §1, §2

MAPK3 (ERK1) = biological target: T17, MAPK3 (ERK1) (Homo sapiens, UniProt P27361)
T17 construct: purchased Thermo Fisher Scientific SelectScreen
Method: as §1, §2

MARK3 = biological target: T18, MARK3 (Homo sapiens, UniProt P27448)
T18 construct: purchased Thermo Fisher Scientific SelectScreen
Method: as §1, §2

MINK1 = biological target: T19, MINK1 (Homo sapiens, UniProt Q8N4C8)
T19 construct: purchased Thermo Fisher Scientific SelectScreen
Method: as §1, §2

MKNK1 (MNK1) = biological target: T20, MKNK1 (MNK1) (Homo sapiens, UniProt Q9BUB5)
T20 construct: purchased Thermo Fisher Scientific SelectScreen
Method: as §1, §2

NEK1 = biological target: T21, NEK1 (Homo sapiens, UniProt Q96PY6)
T21 construct: purchased Thermo Fisher Scientific SelectScreen
Method: as §1, §2

NTRK1 (TRKA) = biological target: T22, NTRK1 (TRKA) (Homo sapiens, UniProt P04629)
T22 construct: purchased Thermo Fisher Scientific SelectScreen
Method: as §1, §2

PAK2 (PAK65) = biological target: T23, PAK2 (PAK65) (Homo sapiens, UniProt Q13177)
T23 construct: purchased Thermo Fisher Scientific SelectScreen
Method: as §1, §2

PIM1 = biological target: T24, PIM1 (Homo sapiens, UniProt P11309)
T24 construct: purchased Thermo Fisher Scientific SelectScreen
Method: as §1, §2

PLK2 = biological target: T25, PLK2 (Homo sapiens, UniProt Q9NYY3)
T25 construct: purchased Thermo Fisher Scientific SelectScreen
Method: as §1, §2

PRKACA (PKA) = biological target: T26, PRKACA (PKA) (Homo sapiens, UniProt P17612)
T26 construct: purchased Thermo Fisher Scientific SelectScreen
Method: as §1, §2

PRKCA (PKC alpha) = biological target: T27, PRKCA (PKC alpha) (Homo sapiens, UniProt P17252)
T27 construct: purchased Thermo Fisher Scientific SelectScreen
Method: as §1, §2

ROCK1 = biological target: T28, ROCK1 (Homo sapiens, UniProt Q13464)
T28 construct: purchased Thermo Fisher Scientific SelectScreen
Method: as §1, §2

RPS6KA3 (RSK2) = biological target: T29, RPS6KA3 (RSK2) (Homo sapiens, UniProt P51812)
T29 construct: purchased Thermo Fisher Scientific SelectScreen
Method: as §1, §2

SRC = biological target: T30, SRC (Homo sapiens, UniProt P12931)
T30 construct: purchased Thermo Fisher Scientific SelectScreen
Method: as §1, §2

STK3 (MST2) = biological target: T31, STK3 (MST2) (Homo sapiens, UniProt Q13188)
T31 construct: purchased Thermo Fisher Scientific SelectScreen
Method: as §1, §2

T25 sequence (Q9NYY3 whole entry): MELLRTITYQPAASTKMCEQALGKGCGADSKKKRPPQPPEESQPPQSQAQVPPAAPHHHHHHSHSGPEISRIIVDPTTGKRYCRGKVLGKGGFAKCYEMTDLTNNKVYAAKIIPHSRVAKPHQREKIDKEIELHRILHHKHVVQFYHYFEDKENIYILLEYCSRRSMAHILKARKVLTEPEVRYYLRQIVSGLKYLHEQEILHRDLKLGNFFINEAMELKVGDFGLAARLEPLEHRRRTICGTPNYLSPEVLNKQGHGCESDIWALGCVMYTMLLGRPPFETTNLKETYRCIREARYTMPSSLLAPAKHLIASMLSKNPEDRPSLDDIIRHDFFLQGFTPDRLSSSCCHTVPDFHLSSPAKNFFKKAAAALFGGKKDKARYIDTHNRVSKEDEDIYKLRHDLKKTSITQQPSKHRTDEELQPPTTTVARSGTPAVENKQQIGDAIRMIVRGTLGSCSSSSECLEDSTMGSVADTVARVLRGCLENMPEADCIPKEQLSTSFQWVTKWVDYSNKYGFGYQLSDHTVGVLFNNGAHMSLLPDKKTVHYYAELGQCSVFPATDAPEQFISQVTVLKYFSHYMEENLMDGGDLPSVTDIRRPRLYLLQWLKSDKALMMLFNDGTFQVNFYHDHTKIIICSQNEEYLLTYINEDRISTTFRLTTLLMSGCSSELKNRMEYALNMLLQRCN
T9 sequence (Q9Y463 whole entry): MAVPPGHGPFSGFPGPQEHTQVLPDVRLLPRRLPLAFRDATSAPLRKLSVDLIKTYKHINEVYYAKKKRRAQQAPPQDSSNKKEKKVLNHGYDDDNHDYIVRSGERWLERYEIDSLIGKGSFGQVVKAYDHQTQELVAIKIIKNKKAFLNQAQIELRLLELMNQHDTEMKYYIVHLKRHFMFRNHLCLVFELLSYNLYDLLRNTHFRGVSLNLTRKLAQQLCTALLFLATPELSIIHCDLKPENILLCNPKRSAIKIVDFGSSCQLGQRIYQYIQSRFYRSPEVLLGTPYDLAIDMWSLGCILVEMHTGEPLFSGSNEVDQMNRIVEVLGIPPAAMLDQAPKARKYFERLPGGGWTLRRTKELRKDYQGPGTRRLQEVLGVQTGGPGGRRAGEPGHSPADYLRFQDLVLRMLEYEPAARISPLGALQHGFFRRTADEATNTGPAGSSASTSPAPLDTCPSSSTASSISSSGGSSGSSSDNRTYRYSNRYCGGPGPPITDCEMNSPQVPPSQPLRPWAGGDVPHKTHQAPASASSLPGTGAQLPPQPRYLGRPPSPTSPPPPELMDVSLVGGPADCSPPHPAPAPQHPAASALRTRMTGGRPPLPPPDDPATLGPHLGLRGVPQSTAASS
T22 sequence (P04629 33-796): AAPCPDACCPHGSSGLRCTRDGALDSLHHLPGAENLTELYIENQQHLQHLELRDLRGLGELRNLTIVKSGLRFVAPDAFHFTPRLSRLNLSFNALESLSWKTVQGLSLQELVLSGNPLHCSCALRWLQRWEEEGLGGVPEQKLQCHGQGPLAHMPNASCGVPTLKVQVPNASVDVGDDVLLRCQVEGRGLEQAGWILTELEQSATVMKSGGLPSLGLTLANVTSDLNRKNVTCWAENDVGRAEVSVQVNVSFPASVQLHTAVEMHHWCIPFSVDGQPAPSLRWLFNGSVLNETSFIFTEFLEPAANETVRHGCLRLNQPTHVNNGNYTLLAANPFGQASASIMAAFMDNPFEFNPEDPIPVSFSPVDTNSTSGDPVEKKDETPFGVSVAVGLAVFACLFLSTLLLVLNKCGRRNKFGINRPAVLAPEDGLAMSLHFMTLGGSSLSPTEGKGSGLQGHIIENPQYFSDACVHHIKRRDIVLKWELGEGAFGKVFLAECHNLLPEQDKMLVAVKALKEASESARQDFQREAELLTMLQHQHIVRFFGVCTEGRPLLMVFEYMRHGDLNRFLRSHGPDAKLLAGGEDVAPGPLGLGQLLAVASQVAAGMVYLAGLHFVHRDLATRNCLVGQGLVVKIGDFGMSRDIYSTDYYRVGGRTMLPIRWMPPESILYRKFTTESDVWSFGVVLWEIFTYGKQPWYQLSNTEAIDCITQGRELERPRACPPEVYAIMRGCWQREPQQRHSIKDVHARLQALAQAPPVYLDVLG
T8 sequence (O15075 whole entry): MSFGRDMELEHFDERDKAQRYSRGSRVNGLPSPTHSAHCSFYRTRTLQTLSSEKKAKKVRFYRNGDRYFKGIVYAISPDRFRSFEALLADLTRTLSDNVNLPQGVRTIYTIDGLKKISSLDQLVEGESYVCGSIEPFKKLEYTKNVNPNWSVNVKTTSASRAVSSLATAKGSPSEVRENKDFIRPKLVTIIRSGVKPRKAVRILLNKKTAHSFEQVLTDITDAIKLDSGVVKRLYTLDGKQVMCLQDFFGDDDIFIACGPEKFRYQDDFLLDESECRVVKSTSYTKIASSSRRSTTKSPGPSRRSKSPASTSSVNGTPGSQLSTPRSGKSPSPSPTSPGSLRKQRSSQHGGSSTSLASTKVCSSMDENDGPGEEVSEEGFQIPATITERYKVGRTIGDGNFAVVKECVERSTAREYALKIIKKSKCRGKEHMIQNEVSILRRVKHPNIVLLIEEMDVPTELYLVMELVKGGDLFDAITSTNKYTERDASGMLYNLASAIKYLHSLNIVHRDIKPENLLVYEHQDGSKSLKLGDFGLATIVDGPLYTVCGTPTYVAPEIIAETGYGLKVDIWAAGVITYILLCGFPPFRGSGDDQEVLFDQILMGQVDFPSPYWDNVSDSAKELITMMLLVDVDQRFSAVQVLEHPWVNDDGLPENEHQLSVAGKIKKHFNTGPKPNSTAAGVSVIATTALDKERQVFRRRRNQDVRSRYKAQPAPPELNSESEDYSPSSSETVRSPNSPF
T19 sequence (Q8N4C8 whole entry): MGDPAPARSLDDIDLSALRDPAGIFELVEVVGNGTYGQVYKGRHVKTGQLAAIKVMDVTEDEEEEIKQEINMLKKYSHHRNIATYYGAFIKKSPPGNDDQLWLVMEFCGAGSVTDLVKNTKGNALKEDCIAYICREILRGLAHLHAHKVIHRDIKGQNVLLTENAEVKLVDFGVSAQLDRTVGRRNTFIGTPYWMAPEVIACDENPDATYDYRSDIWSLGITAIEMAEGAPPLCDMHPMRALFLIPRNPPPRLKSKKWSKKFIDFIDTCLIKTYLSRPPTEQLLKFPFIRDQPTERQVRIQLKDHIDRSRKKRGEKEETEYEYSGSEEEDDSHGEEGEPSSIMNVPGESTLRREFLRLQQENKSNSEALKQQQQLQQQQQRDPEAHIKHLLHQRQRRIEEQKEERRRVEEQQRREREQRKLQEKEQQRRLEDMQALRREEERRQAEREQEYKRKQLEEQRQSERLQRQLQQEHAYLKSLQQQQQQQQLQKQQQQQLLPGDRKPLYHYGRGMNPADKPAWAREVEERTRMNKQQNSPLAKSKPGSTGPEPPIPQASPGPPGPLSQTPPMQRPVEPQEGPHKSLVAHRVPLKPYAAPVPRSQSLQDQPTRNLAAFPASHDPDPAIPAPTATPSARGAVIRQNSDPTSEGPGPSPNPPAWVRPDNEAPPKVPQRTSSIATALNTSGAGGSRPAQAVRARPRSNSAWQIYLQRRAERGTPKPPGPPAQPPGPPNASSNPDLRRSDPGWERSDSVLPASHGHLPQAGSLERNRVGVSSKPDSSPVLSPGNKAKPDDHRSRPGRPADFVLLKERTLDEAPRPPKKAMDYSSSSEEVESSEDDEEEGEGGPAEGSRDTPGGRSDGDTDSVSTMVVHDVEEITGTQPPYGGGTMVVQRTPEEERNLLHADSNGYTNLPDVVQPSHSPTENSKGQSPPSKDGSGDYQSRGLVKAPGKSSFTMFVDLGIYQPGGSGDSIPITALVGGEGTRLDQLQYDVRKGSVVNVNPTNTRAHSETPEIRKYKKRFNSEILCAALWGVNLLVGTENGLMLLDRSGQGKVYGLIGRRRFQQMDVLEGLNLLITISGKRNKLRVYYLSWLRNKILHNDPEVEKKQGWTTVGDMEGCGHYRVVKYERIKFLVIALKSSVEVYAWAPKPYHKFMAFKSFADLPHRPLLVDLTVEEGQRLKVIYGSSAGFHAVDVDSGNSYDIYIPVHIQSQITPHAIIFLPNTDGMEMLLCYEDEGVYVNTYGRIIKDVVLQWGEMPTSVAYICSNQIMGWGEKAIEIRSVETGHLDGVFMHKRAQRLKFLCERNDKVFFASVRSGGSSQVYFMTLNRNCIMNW
T13 sequence (O14920 whole entry): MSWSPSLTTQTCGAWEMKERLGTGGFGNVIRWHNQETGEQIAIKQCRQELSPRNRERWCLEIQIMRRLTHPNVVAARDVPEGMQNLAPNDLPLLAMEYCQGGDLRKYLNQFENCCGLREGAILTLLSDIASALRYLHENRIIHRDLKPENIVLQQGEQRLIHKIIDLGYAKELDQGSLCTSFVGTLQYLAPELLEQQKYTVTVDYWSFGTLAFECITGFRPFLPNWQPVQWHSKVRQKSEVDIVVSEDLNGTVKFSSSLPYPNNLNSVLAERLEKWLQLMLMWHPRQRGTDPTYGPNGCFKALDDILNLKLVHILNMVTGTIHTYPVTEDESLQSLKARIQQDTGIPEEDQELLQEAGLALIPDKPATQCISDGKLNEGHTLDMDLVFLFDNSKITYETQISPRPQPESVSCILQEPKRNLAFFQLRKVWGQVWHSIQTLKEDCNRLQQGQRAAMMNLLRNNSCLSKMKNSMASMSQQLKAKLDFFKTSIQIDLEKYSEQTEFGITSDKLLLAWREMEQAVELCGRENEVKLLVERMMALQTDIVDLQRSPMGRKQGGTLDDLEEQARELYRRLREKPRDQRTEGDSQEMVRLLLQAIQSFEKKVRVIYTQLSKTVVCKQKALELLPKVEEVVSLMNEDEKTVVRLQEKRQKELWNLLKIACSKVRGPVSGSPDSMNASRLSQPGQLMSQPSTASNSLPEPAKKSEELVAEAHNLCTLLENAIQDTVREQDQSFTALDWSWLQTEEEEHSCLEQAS

inhibition at 1 µM (AKT1 (PKB alpha)): 2%
inhibition at 1 µM (AURKA (Aurora A)): 18%
inhibition at 1 µM (BTK): 19%
inhibition at 1 µM (CAMK2B (CaMKII beta)): 19%
inhibition at 1 µM (CDK2/cyclin A): 0%
inhibition at 1 µM (CSNK1D (CK1 delta)): 7%
inhibition at 1 µM (CSNK1G1 (CK1 gamma 1)): 4%
inhibition at 1 µM (DCAMKL1 (DCLK1)): 1%
inhibition at 1 µM (DYRK1B): 4%
inhibition at 1 µM (ERBB4 (HER4)): 15%
inhibition at 1 µM (FGFR1): 3%
inhibition at 1 µM (HIPK1 (Myak)): 2%
inhibition at 1 µM (IKBKB (IKK beta)): 8%
inhibition at 1 µM (IRAK4): 4%
inhibition at 1 µM (LCK): -6%
inhibition at 1 µM (MAP3K9 (MLK1)): 2%
inhibition at 1 µM (MAPK3 (ERK1)): 6%
inhibition at 1 µM (MARK3): 6%
inhibition at 1 µM (MINK1): 13%
inhibition at 1 µM (MKNK1 (MNK1)): 8%
inhibition at 1 µM (NEK1): -1%
inhibition at 1 µM (NTRK1 (TRKA)): -7%
inhibition at 1 µM (PAK2 (PAK65)): 4%
inhibition at 1 µM (PIM1): 12%
inhibition at 1 µM (PLK2): 16%
inhibition at 1 µM (PRKACA (PKA)): 5%
inhibition at 1 µM (PRKCA (PKC alpha)): 13%
inhibition at 1 µM (ROCK1): 10%
inhibition at 1 µM (RPS6KA3 (RSK2)): 8%
inhibition at 1 µM (SRC): 0%
inhibition at 1 µM (STK3 (MST2)): 0%
SMILES: O=C(/C=C/c1ccc(O)c(O)c1)CCCCn1ccc2c(O)cccc21 [Compound 13a, (E)-1-(3,4-dihydroxyphenyl)-7-(4-hydroxy-1H-indol-1-yl)hept-1-en-3-one]
